Assays:
[1] = Dose-limiting toxicity and maximum tolerated dose, phase I dose escalation; format: in vivo, human (patients with advanced solid tumors)
Description: Dose-limiting toxicities (DLTs) in the study were defined as those related to treatment and occurring within the first 28 days of therapy. Hematologic DLTs were defined as afebrile grade 4 neutropenia for >5 days, grade 4 neutropenia associated with fever, or grade 4 thrombocytopenia. Non-hematological DLTs were defined as any ≥ grade 3 adverse event (AE) for >7 days that could not be controlled to grade ≤2 with appropriate treatment.
In part B (dose expansion) of the study, an additional 12 evaluable patients received treatment at the combination MTDs.

[2] = cited from earlier work
[3] = Plasma pharmacokinetics, each drug alone and in combination; conditions: selumetinib + dacarbazine arm
Description: When more than one maximum occurred, the reported value was assigned to the first occurrence.

## Cn1cnc2c(F)c(Nc3ccc(Br)cc3Cl)c(C(=O)NOCCO)cc21 [Selumetinib]
[1]; in combination with dacarbazine 1000 mg/m^2 every 21 days
  MTD of selumetinib: 75 mg BID
[1]; in combination with docetaxel 75 mg/m^2 every 21 days
  MTD of selumetinib: 75 mg BID
[1]; plus docetaxel with ppG-CSF, defined in part A
  MTD of selumetinib: 75 mg BID
[1]; plus docetaxel without ppG-CSF
  recommended phase II dose of selumetinib: 75 mg BID
[1]; with docetaxel 75 mg/m^2 without ppG-CSF
  MTD of selumetinib: 75 mg BID
[2]; monotherapy
  recommended dose for selumetinib monotherapy: 75 mg twice daily (BID)
[2]; selumetinib monotherapy
  monotherapy MTD: 75 mg BID
[3]; plasma, dosed in combination, selumetinib 75 mg (N = 15), geometric mean (% CV)
  AUC(0–8): 4544 (45.42) ng•h/mL

## CN(C)/N=N/c1[nH]cnc1C(N)=O [Dacarbazine]
[3]
  Pharmacokinetic parameters administered alone vs in combination: similar
  Plasma concentration-time profiles administered alone vs in combination: similar

Source: publication PMC5340007 (BMC Cancer, 2017)
